This is an account of results in patent US20250230171A1 (MOMA Therapeutics, Inc., priority 2023, published 2025).

The IC50 is the point on the concentration scale where inhibition reaches its midpoint.

For one test, the target named is biotinylated Avi-POLθ[2-894] (Homo sapiens (Human), UniProt O75417). In words: POLθ ATPase assay (ADP-Glo). Particulars: POLθ ATPase, ADP-Glo; n=2; read-out: Biochemical ATPase ADPGlo IC50. The method, then: In some embodiments, the ATPase assay a compound of the present disclosure is combined with biotinylated Avi-POLθ[2-894], a 50 nucleotide poly-thymine repeat single-stranded DNA, and ATP in buffer. In some embodiments, the mixture is incubated and ADP-Glo Reagent added, followed by a subsequent incubation. In some embodiments, a Kinase Detection Reagent may be added, followed by a third incubation. In some embodiments, the activity is measured via luminescence signal (e.g., measured with the EnVision multimode plate reader). POLθ-mediated ATP hydrolysis was measured using the ADP-Glo Kinase Assay (Promega Corporation, Madison, WI). Reactions were performed in white 384-well small-volume microplates (Greiner Bio-One, Frickenhausen, Germany) using a total volume of 15 μL. The ATPase reaction consisted of 1 nM biotinylated Avi-POLθ[2-894], 5 nM of a 50 nucleotide poly-thymine repeat single-stranded DNA (PolyT(50) ssDNA), and 100 μM ATP in 5 μL of assay buffer (50 mM Tris, pH 7.5, 80 mM KCl, 10 MgCl2, 1 mM DTT, 5% glycerol, 0.01% BSA, 0.01% Tween-20). Inhibition of POLΘATPase activity was determined by preparing 11-point serial dilutions of the test compounds in 100% DMSO, then transferring 30 nL of the compounds into the ATPase reaction using an Echo acoustic liquid handler (Beckman Coulter, Brea, CA). DMSO-treated wells containing either all of the reaction components (1 nM biotinylated Avi-POLθ[2-894], 5 nM PolyT(50) ssDNA, 100 μM ATP) or with assay buffer substituted for the biotinylated Avi-POLθ[2-894](0 nM biotinylated Avi-POLθ[2-894], 5 nM PolyT(50) ssDNA, 100 μM ATP) were used to define the maximum and minimum response in the assay. Following a one-hour incubation at ambient temperature, 5 μL of ADP-Glo Reagent was added to the ATPase reaction, and this mixture was allowed to incubate at ambient temperature for an additional hour. Lastly, 5 μL of Kinase Detection Reagent was added, followed by a third one-hour incubation at ambient temperature. […] Luminescence signal was measured using the EnVision multimode plate reader (Perkin Elmer. Waltham. MA). […] Non-linear regression analysis using the four-parameter logistic equation was conducted on the percent activity values of the compound dose-responses, yielding the AC50 value for each compound. Genedata Screener (Genedata. Basel, Switzerland) was used for the data analysis.
Chain of biotinylated Avi-POLθ[2-894] (O75417 2-894): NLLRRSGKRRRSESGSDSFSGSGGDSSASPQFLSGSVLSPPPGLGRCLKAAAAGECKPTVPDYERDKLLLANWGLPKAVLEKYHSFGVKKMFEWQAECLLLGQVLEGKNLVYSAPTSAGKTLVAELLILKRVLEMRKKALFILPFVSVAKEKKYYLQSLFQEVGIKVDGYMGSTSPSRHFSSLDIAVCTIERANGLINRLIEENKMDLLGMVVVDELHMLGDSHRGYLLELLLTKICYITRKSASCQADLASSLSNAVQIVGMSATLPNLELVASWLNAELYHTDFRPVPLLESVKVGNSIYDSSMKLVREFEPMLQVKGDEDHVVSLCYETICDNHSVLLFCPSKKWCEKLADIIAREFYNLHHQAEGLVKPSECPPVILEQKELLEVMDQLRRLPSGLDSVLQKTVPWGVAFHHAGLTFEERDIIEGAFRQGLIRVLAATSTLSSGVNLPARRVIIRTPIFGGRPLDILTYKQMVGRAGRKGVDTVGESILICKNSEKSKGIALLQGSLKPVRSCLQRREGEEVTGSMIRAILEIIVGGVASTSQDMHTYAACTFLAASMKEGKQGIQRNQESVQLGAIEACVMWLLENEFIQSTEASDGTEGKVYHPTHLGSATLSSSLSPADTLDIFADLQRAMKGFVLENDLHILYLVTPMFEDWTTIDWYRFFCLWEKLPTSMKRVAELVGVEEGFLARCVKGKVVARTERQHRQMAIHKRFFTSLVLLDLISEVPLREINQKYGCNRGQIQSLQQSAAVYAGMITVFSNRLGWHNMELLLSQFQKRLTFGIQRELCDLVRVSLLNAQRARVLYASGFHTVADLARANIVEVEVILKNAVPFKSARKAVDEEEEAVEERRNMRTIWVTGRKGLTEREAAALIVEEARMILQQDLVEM
Regarding `COc1cnc(Cl)cc1-c1cc(C)ncc1C(=O)Nc1nc2c(s1)CN(C(=O)c1nc(C(F)(F)F)co1)C2`, the IC50 fell in the range of 1 to 15 nM.

As for `COc1cnc(Cl)cc1-c1cc(C)ncc1C(=O)Nc1nc2c(s1)CN(C(=O)c1ccc(Cl)c(C(F)F)c1)C2`, the concentration for half-maximal inhibition (IC50) was 1 to 15 nM.

For `COc1ccc(C#N)cc1-c1cc(C)ncc1C(=O)Nc1nc2c(s1)CN(C(=O)c1ccc(Cl)c(C(F)F)c1)C2`, the IC50 was 1 to 15 nM.

For the compound `COc1cnc(Cl)cc1-c1cc(C)ncc1C(=O)Nc1nc2c(s1)C[C@H](C(=O)N[C@H]1CC[C@H]1O)CC2`, the IC50 was 150 to 900 nM.

As for `COc1cnc(Cl)cc1-c1cc(C)ncc1C(=O)Nc1nc2c(s1)CN(C(=O)c1ncc(C)n1C)C2`, the concentration for half-maximal inhibition (IC50) was 1 to 15 nM.

On to `COc1cnc(Cl)cc1-c1cc(C)ncc1C(=O)Nc1nc2c(s1)CN(C(=O)c1ncc(C)nc1C)C2`, for which the half-maximal inhibitory concentration (IC50) fell in the range of 1 to 15 nM.

In the case of `COc1cnc(Cl)cc1-c1cc(C)ncc1C(=O)Nc1nc2c(s1)C[C@@H](C(=O)N[C@H]1C[C@H](O)C1)CC2` [Example 669], the IC50 was 150 to 900 nM.

Consider `COc1cnc(Cl)cc1-c1cc(C)ncc1C(=O)Nc1nc2c(s1)CN(C(=O)c1nccs1)C2`, for which the IC50 lay within 1 to 15 nM.

Staying with this test, now noted: n=2; read-out: Biochemical ATPase ADPGlo IC50.
Regarding `COc1cnc(Cl)cc1-c1cc(C)ncc1C(=O)Nc1nc2c(s1)CN(C(=O)C1CC3(COC3)C1)C2` [Example 192], the IC50 is 1 to 15 nM.

For `COc1ccc(C#N)cc1-c1cc(C)ncc1C(=O)Nc1nc2c(s1)CN(C1CC1)C2` (racemic) [Example 165], the IC50 was 50 to 150 nM.

`COc1ccc(C#N)cc1-c1cc(C)ncc1C(=O)Nc1nc2c(s1)CN(C(=O)C1CC1C)CC2` (stereo not drawn) [Example 211]: the IC50 lay within 15 to 50 nM.

On to `COc1cnc(Cl)cc1-c1cc(C)ncc1C(=O)Nc1nc2c(s1)CN(C(=O)c1cnn(C(C)C)c1)C2` [Example 85, 2′-chloro-N-(5-(1-isopropyl-1H-pyrazole-4-carbonyl)-5,6-dihydro-4H-pyrrolo[3,4-d]thiazol-2-yl)-5′-methoxy-6-methyl-[4,4′-bipyridine]-3-carboxamide], for which the IC50 lay in the range of 1 to 15 nM.

For the compound `COc1ccccc1-c1cc(C)ncc1C(=O)Nc1nc2c(s1)CN(C(=O)c1ccncc1)C2`, the IC50 is 50 to 150 nM.

`COc1ccc(C#N)cc1-c1cc(C)ncc1C(=O)Nc1nc2c(s1)CN(C(=O)C1CCCCO1)CC2` (single isomer, unassigned) [Example 215]: the IC50 is at least 900 nM.

Take `COc1ccccc1-c1cc(C)ncc1C(=O)Nc1nc2c(s1)CN(C(=O)c1ncnn1C)C2`: the IC50 lay within 150 to 900 nM.

Consider `COc1ccccc1-c1cc(C)ncc1C(=O)Nc1nc2c(s1)CN(C(=O)c1cccc3ccnn13)C2` [Example 253], for which the IC50 was in the range of 15 to 50 nM.

As for `COc1cnc(Cl)cc1-c1cc(C)ncc1C(=O)Nc1nc2c(s1)CN(C(=O)[C@H]1CC[C@@H](O)CC1)C2` [Example 115], the IC50 was 15 to 50 nM.

Regarding `COc1cnc(Cl)cc1-c1cc(C)ncc1C(=O)Nc1nc2c(s1)CC(C(=O)NC1CC1)CC2` (single isomer, unassigned) [Example 154], the IC50 was in the range of 150 to 900 nM.

On to `COc1ccccc1-c1cc(C)ncc1C(=O)Nc1nc2c(s1)CN(S(=O)(=O)NC(C)C)C2` [Example 280], for which the IC50 was 50 to 150 nM.

`COc1cnc(Cl)cc1-c1cc(C)ncc1C(=O)Nc1nc2c(s1)CN(C(=O)c1c(C(F)F)nn(C)c1F)C2` [Example 59, 2′-chloro-N-(5-(3-(difluoromethyl)-5-fluoro-1-methyl-1H-pyrazole-4-carbonyl)-5,6-dihydro-4H-pyrrolo[3,4-d]thiazol-2-yl)-5′-methoxy-6-methyl-[4,4′-bipyridine]-3-carboxamide]: the IC50 lay in the range of 1 to 15 nM.

For the compound `COc1ccccc1-c1cc(C)ncc1C(=O)Nc1nc2c(s1)CN(C(=O)C1CCN(C)C1=O)C2` (stereo not drawn), the IC50 was at least 900 nM.

For the compound `COc1ccc(C#N)cc1-c1cc(C)ncc1C(=O)Nc1nc2c(s1)CN(S(=O)(=O)C1(C)CC1)C2`, the IC50 fell in the range of 15 to 50 nM.

As to `COc1ccc(C#N)cc1-c1cc(C)ncc1C(=O)Nc1nc2c(s1)CN(C(=O)[C@@H]1CCCOC1)CC2` [Example 223], the IC50 was in the range of 150 to 900 nM.

Consider `COc1ccccc1-c1cc(C)ncc1C(=O)Nc1nc2c(s1)CN(C(=O)c1cncnc1)C2`, for which the IC50 was 150 to 900 nM.

In the case of `COc1ccc(C#N)cc1-c1cc(C)ncc1C(=O)Nc1nc2c(s1)CN(C(=O)C1CCOC1)CC2` (stereo not drawn), the IC50 was 150 to 900 nM.

In the case of `COc1ccccc1-c1cc(C)ncc1C(=O)Nc1nc2c(s1)CCN(C(=O)OC(C)(C)C)C2`, the IC50 was at least 900 nM.

Turning to `COc1ccccc1-c1cc(C)ncc1C(=O)Nc1nc2c(s1)CN(C(=O)C1CCCCO1)C2` (stereo not drawn) [Example 324, 4-(2-methoxyphenyl)~6-methyl-N-(5-{3-oxabicyclo[3.1.0]hexane-6-carbonyl}-4H,5H,6H-pyrrolo[3,4-d][1,3]thiazol-2-yl)pyridine-3-carboxamide], the IC50 was 150 to 900 nM.

As to “N-(5-(1H-pyrazole-5-carbonyl)-5,6- dihydro-4H-pyrrolo[3,4-d]thiazol-2-yl)- 2′-chloro-5′-methoxy-6-methyl-[4,4′- bipyridine]-3-carboxamide [Example 86]”, the IC50 lay in the range of 1 to 15 nM.

As for `COc1ccc(C#N)cc1-c1cc(C)ncc1C(=O)Nc1nc2c(s1)CN(S(=O)(=O)C1COC1)C2` [Example 217], the IC50 lay in the range of 50 to 150 nM.

Regarding `COc1ccccc1-c1cc(C)ncc1C(=O)Nc1nc2c(s1)CN(C(=O)c1cc3ccccn3n1)C2`, the IC50 fell in the range of 50 to 150 nM.

On to `COc1ccccc1-c1cc(C)ncc1C(=O)Nc1nc2c(s1)CN(C(=O)C1(c3ccccn3)CC1)C2` (racemic), for which the IC50 lay in the range of 50 to 150 nM.

`COc1ccccc1-c1cc(C)ncc1C(=O)Nc1nc2c(s1)CN(c1nccs1)C2`: the IC50 is at least 900 nM.

On to `COc1ccccc1-c1cc(C)ncc1C(=O)Nc1nc2c(s1)CN(S(=O)(=O)N1CCOCC1)C2`, for which the IC50 lay within 15 to 50 nM.

Take `COc1ccccc1-c1cc(C)ncc1C(=O)Nc1nc2c(s1)CN(C(=O)C1CCOC1)C2` (stereo not drawn): the IC50 lay in the range of 150 to 900 nM.

As to `COc1ccccc1-c1cc(C)ncc1C(=O)Nc1nc2c(s1)CC(=O)CC2` [Example 373], the IC50 is at least 900 nM.

With `COc1cnc(Cl)cc1-c1cc(C)ncc1C(=O)Nc1nc2c(s1)CN(C(=O)C1CC(OC)(C(F)(F)F)C1)C2` (racemic) [Example 103, (Racemic)-2′-chloro-5′-methoxy-N-(5-(3-methoxy-3-(trifluoromethyl)cyclobutane-1-carbonyl)-5,6-dihydro-4H-pyrrolo[3,4-d]thiazol-2-yl)-6-methyl-[4,4′-bipyridine]-3-carboxamide], the half-maximal inhibitory concentration (IC50) fell in the range of 15 to 50 nM.

For `COc1ccccc1-c1cc(C)ncc1C(=O)Nc1nc2c(s1)CN(S(=O)(=O)N(C)C)C2`, the IC50 lay in the range of 150 to 900 nM.

Turning to `COc1ccccc1-c1cc(C)ncc1C(=O)Nc1nc2c(s1)CN(C(=O)C1(C#N)CC1)C2`, the IC50 is at least 900 nM.

`COc1ccc(C#N)cc1-c1cc(C)ncc1C(=O)Nc1nc2c(s1)CN(C(=O)[C@@H]1CCCO1)C2` [Example 261]: the half-maximal inhibitory concentration (IC50) is 15 to 50 nM.

For the compound `COc1cnc(Cl)cc1-c1cc(C)ncc1C(=O)Nc1nc2c(s1)C[C@@H](NC(=O)C1CC1)CC2` [Example 200], the IC50 was 50 to 150 nM.

Take `COc1ccccc1-c1cc(C)ncc1C(=O)Nc1nc2c(s1)CN(C(=O)c1ncn(C)n1)C2`: the IC50 is 50 to 150 nM.

Consider `COc1ccccc1-c1cc(C)ncc1C(=O)Nc1nc2c(s1)CN(C(=O)C1CCOCC1)C2` (racemic), for which the IC50 was in the range of 50 to 150 nM.

Take `COc1ccccc1-c1cc(C)ncc1C(=O)Nc1nc2c(s1)CN(C(=O)N(C)C)C2`: the IC50 was at least 900 nM.

In the case of `COc1ccccc1-c1cc(C)ncc1C(=O)Nc1nc2c(s1)CN(C(=O)c1cnn(C)c1)C2`, the IC50 lay in the range of 150 to 900 nM.

Take `CCn1nccc1C(=O)N1Cc2nc(NC(=O)c3cnc(C)cc3-c3cc(Cl)ncc3OC)sc2C1`: the IC50 was 1 to 15 nM.

Consider `COc1cnc(Cl)cc1-c1cc(C)ncc1C(=O)Nc1nc2c(s1)CN(C(=O)C1CCC(O)(C(F)(F)F)CC1)C2` (stereo not drawn) [Example 112], for which the 50% inhibitory concentration (IC50) was in the range of 1 to 15 nM.

With `COc1cnc(Cl)cc1-c1cc(C)ncc1C(=O)Nc1nc2c(s1)CN(C(=O)c1cnn(C3CC3)c1)C2` [Example 80, 2′-chloro-N-(5-(1-cyclopropyl-1H-pyrazole-4-carbonyl)-5,6-dihydro-4H-pyrrolo[3,4-d]thiazol-2-yl)-5′-methoxy-6-methyl-[4,4′-bipyridine]-3-carboxamide], the IC50 lay within 1 to 15 nM.

Consider `COc1cnc(Cl)cc1-c1cc(C)ncc1C(=O)Nc1nc2c(s1)CN(C(=O)c1cn(C)nc1C(F)(F)F)C2` [Example 61, 2′-chloro-5′-methoxy-6-methyl-N-(5-(1-methyl-3-(trifluoromethyl)-1H-pyrazole-4-carbonyl)-5,6-dihydro-4H-pyrrolo[3,4-d]thiazol-2-yl)-[4,4′-bipyridine]-3-carboxamide], for which the IC50 was 1 to 15 nM.
